Measurements: patent publication US20230150984A1, “NICOTINAMIDE MONONUCLEOTIDE AND NICOTINAMIDE RIBOSIDE DERIVATIVES AND USE THEREOF IN THE TREATMENT OF VIRAL INFECTIONS AND RESPIRATORY COMPLICATIONS, IN […] BY INFL[…] CORONAVIRUS” (NUVAMID SA, priority 2020, published 2023)
“Also recorded” adds a separate entry of the source.

What was measured:
[1] = system: Influenza virus H1N1 PR/8/34; test: Murine influenza virus H1N1 PR/8/34 pulmonary infection, lethal dose (Example 2); type: in vivo, mice; settings: for body weight evolution D0 to D14 in comparison to vehicle / clinical score / clinical states of the mice D0 to D14: 500 PFU H1N1, I-A 185 mg/kg i.p., Tamiflu 1 mg/kg oral twice a day; for viral load in lung: 8 days after infection with 500 PFU of influenza A virus, vs vehicle group; for survival rate at D14: mice infected intranasally with 500 PFU H1N1 PR/8/34, Tamiflu 1 mg/kg oral gavage twice a day, D0-D14
H1N1 = test: NMN and NR on influenza virus pulmonary infection in mice (Example 7); type: in vivo; settings: H1N1 infected mice; for Remaining mice, Day 11 / Remaining mice, Day 14: 12 per group, loss of 25% or more bodyweight counted as dead; for Remaining mice, Day 11 / Remaining mice, Day 14 / survival rate at the end of the experiment: I-A or I-G 185 mg/kg i.p. daily, Tamiflu 2x1 mg/kg oral; for body weight loss in comparison to vehicle: I-A or I-G 185 mg/kg, Tamiflu 2 mg/kg, D0 to D14
Procedure: The compounds I-A and I-G were delivered by intraperitoneal route at 185 mg/kg daily during all the experiment. 72 mice were daily weighed to adapt the volume of compounds. Physiological buffer was used as control and was administrated by i.p once per day during all the experiment. Control animals were orally administrated with Tamiflu at 2 mg/kg during all the experiment. Each animal has been infected with H1N1. The experimental groups are as follows: • vehicle: H1N1 infection+physiological buffer • Tamiflu: H1N1 infection+Tamiflu (2×1 mg/kg) • Compound I-A: H1N1 infection+NMN (185 mg/kg) • Compound I-G: H1N1 infection+NR (185 mg/kg) • Tamiflu+Compound I-A: H1N1 infection+Tamiflu (2×1 mg/kg)+Compound I-A (185 mg/kg) • Tamiflu+Compound I-G: H1N1 infection+Tamiflu (2×1 mg/kg)+Compound I-G (185 mg/kg)
Survival rates, body weight and clinical scores were monitored during all the experiment.
Survival rates (FIG. 7): Animals which lost 25% or more bodyweight, were euthanized for ethical reasons and considered as dead. Survival rates were monitored during all the experiment. […]
Respiratory scoring (FIG. 10): the respiratory scoring was assessed according to the following criteria: […]

[2] = system: Influenza virus H1N1 PR/8/34 strain; test: Compound I-A dose-response on influenza virus pulmonary infection (Example 8); type: in vivo, mice; settings: for Remaining mice, Day 10 / Remaining mice, Day 14: 500 PFU H1N1 PR/8/34, 12 mice; for viral load in lung: 8 days after infection with 500 PFU of influenza A virus
Procedure: The model consists in intranasal administration of 500 PFU of Influenza virus H1N1 PR/8/34 strain to induce pneumonia. Compound I-A was delivered by intraperitoneal (i.p.) route at 90, 185 or 500 mg/kg immediately after infection and then daily during all the experiment. Mice were daily weighed to adapt the volume of compounds. Physiological buffer was used as control and was administrated by i.p once per day during all the experiment. Each experimental group comprises 22 mice: 12 mice for the survival study, 5 mice of the flow cytometry analysis and 5 mice for the assessment of viral load.
The experimental groups are the following: • Group 1: Vehicle (i.p.) • Group 2: Compound I-A 90 mg/kg • Group 3: Compound I-A 185 mg/kg • Group 4: Compound I-A 500 mg/kg
At day 8, 5 mice per group are use to measure the following parameters. • Blood collection: 3 aliquots (a, b and c) a)+ac. perchlorique (NAD dosage) b) immune cell characterization (cytometry) c) remaining plasma->freezing • Lung and lymph nodes collection, cell preparation, counting and immune cell characterization (cytometry) • Remaining cells (if any) from the 2 tissues treated for RNAseq • Viral load in the lungs (5 mice per group)
Survival rates, body weight, clinical scores, viral load in lungs and quantification of subsets of immune population in lung, blood and draining lymph node at day 8 post-infection by flow cytometry were monitored during all the experiment.
Survival (FIG. 11): Animals which lost 25% or more bodyweight, were euthanized for ethical reasons and considered as dead. Survival rates were monitored during all the experiment. […]

[3] = I-A 90, 185 or 500 mg/kg i.p. daily

In the case of `CCOC(=O)C1=C[C@@H](OC(CC)CC)[C@H](NC(C)=O)[C@@H](N)C1` [Tamiflu, oseltamivir, reference compound], the “body weight evolution D0 to D14 in comparison to vehicle” value [1] is reported as “slight improvement”, the “clinical score / clinical states of the mice D0 to D14” value [1] is reported as “significantly improved clinical states” and the “viral load in lung” value [1] is reported as “no impact”. For the same compound, the “survival rate at D14” value ([1]; I-A 185 mg/kg i.p. once a day) was 58%, the “Remaining mice, Day 11” value (H1N1) was 8/12 and the “Remaining mice, Day 14” value (H1N1) was 6/12. For the same compound, the “survival rate at the end of the experiment” value (shortened to “survival rate at the end”) (H1N1) was 50% and the “body weight loss in comparison to vehicle” value (from here on “body weight loss”) (H1N1) was “decrease the body weight loss”.

With `NC(=O)c1ccc[n+]([C@@H]2O[C@H](CO)[C@@H](O)[C@H]2O)c1` [Compound I-G, NICOTINAMIDE RIBOSIDE] the “Remaining mice, Day 11” value (H1N1) was 6/12, the “Remaining mice, Day 14” value (H1N1) was 6/12 and the “survival rate at the end” value (H1N1) was 50%. The “body weight loss” value (H1N1) was “decrease the body weight loss”.

In the case of `NC(=O)c1ccc[n+]([C@@H]2O[C@H](COP(=O)(O)O)[C@@H](O)[C@H]2O)c1` [Compound I-A, Nicotinamide mononucleotide], the “body weight evolution D0 to D14 in comparison to vehicle” value [1] is reported as “slight improvement”, the “clinical score / clinical states of the mice D0 to D14” value [1] is reported as “significantly improved clinical states” and the “viral load in lung” value [1] is reported as “no impact”. For the same compound, the “H1N1 induced lymphopenia in blood (T cells levels)” value ([1]; D8, cytometry on blood) was “reduced H1N1 induced lymphopenia”, the “recruitment of monocyte-derived macrophages and dendritic cells and CD8+ T cells in infected lungs” value ([1]; D8 post-inoculation, cytometry on lung) was “reduced the recruitment” and the circulating monocytes ([1]; D8 post-inoculation, in comparison to vehicle and oseltamivir-treated animals) was “decreased circulating monocytes”. The “animal mortality / efficacy on survival” value ([1]; I-A 185 mg/kg i.p. once a day, compared to untreated control animals or oseltamivir, 185 mg/kg) was “reduce animal mortality; also recorded: more effective than oseltamivir”, the “survival rate at D14” value ([1]; I-A 185 mg/kg i.p. once a day) was 67% and the “Remaining mice, Day 11” value (H1N1) was 7/12. For the same compound, the “Remaining mice, Day 14” value (H1N1) was 7/12, the “survival rate at the end” value (H1N1) was 58% and the “body weight loss” value (H1N1) was “decrease the body weight loss”. For the same compound, the mice survival rate ([2]; I-A 90 mg/kg i.p. daily) was 33%, the “Remaining mice, Day 10” value ([2]; I-A 90 mg/kg i.p. daily) was 8/12 and the “Remaining mice, Day 14” value ([2]; I-A 90 mg/kg i.p. daily) was 4/12. The “viral load in lung” value ([2]; I-A 90 mg/kg) was “no significative impact”, the mice survival rate ([2]; I-A 185 mg/kg i.p. daily) was 58% and the “Remaining mice, Day 10” value ([2]; I-A 185 mg/kg i.p. daily) was 12/12. For the same compound, the “Remaining mice, Day 14” value ([2]; I-A 185 mg/kg i.p. daily) was 7/12, the “viral load in lung” value ([2]; I-A 185 mg/kg) was “no significative impact” and the mice survival rate ([2]; I-A 500 mg/kg i.p. daily) was 75%. The “Remaining mice, Day 10” value ([2]; I-A 500 mg/kg i.p. daily) was 10/12, the “Remaining mice, Day 14” value ([2]; I-A 500 mg/kg i.p. daily) was 9/12 and the “viral load in lung (quantity of H1N1 particles)” value ([2]; I-A 500 mg/kg, 8 days after infection, in comparison to the vehicle group) was “significantly reduced the quantity of H1N1 particles”. The “body weight in comparison to vehicle (D3-D8)” value [2, 3] was “weak improvement”, the “clinical scores / clinical states of the mice compared to vehicle group” value [2, 3] was “improved clinical states” and the “modulation of the recruitment of monocyte derived macrophages” value ([2]; lung, day 8, flow cytometry) was “not observed”. The “number of CD11b+DC” value ([2]; lung, day 8, flow cytometry) was “tended to be reduced”, the “proportion of CD206+ macrophages” value ([2]; lung, day 8, flow cytometry) was “increased” and the “destruction of alveolar macrophages due to the infection” value ([2]; lung, day 8, flow cytometry, effect did not seem dose dependent) was “reduced”.
